Results on 3 molecules are retold here after publication PMC11992225, “Antibacterial compounds against non-growing and intracellular bacteria” (npj Antimicrobials and Resistance, 2025).

≈ marks a conversion by molar mass, not a printed value. Read-outs that look alike come from different tables or passages of the source.

One experiment has as its system non-growing UPEC CFT073. The experiment can be described thus: Dilution-regrowth assay (screen, hit validation, dose-response) on stationary-phase UPEC. Format: cell-based, Escherichia coli. The note with it: for activity against non-growing UPEC in LPM (pH 5.5) compared to 1:4 CA-MHB (pH 7.4): regrowth delay and killing, Figs. 2 and 3. In short, it runs like this:
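Regrowth (OD600 after 6 h, 37 °C) of diluted non-growing CFT073, following 24 h compound treatment of 24 h stationary cultures, defines activity relative to untreated control. Screen at 20 µM, validation at 20, 10, 5 µM (duplicates), dose–response in three biological replicates fitted by five-parameter logistic.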

Experiment [1] concerns intracellular S. flexneri 5a M90T in TC7 cells. Briefly: microbe, parasite or virus in culture. Format: cell-based, Shigella flexneri. The note with it: for IC50: Shigella flexneri, TC7, 14 h.
For a further experiment, the system named is S. flexneri 5a M90T. Briefly: MIC in tryptic soy broth, S. flexneri. Format: cell-based, Shigella flexneri. The conditions noted are these: for MIC: Shigella flexneri, 5AM90T, read-out: MIC (μM) TSB. In short, it runs like this:
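MICs come from microdilution in CA-MHB/40 mM HEPES pH 7.4 for the UPEC, Pseudomonas and Staphylococcus strains, and in TSB for Shigella. UPEC also tested in LPM/30 mM MES pH 5.5.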

Setting [2] is: E. coli in 1:4 CA-MHB (pH 7.4), drug concentration 0.25.
The mark [3] stands for this setting: E. coli in 1:4 CA-MHB (pH 7.4), drug concentration 0.5.
Setting [4] is: E. coli in 1:4 CA-MHB (pH 7.4), drug concentration 1.
Where [5] appears, read: E. coli in 1:4 CA-MHB (pH 7.4), drug concentration 2.5.
Setting [6] is: E. coli in 1:4 CA-MHB (pH 7.4), drug concentration 5.
The mark [7] stands for this setting: E. coli in 1:4 CA-MHB (pH 7.4), drug concentration 10.
Where [8] appears, read: E. coli in 1:4 CA-MHB (pH 7.4), drug concentration 30.
[9] abbreviates: E. coli in LPM (pH 5.5), drug concentration 0.25.
The mark [10] stands for this setting: E. coli in LPM (pH 5.5), drug concentration 0.5.
[11] abbreviates: E. coli in LPM (pH 5.5), drug concentration 1.
[12] abbreviates: E. coli in LPM (pH 5.5), drug concentration 2.5.
Setting [13] is: E. coli in LPM (pH 5.5), drug concentration 5.
The mark [14] stands for this setting: E. coli in LPM (pH 5.5), drug concentration 10.
Setting [15] is: E. coli in LPM (pH 5.5), drug concentration 30.
Where [16] appears, read: TC7 cells infected with GFP-expressing S. flexneri, 14 h treatment.

As to `CO[C@@]12[C@H](COC(N)=O)C3=C(C(=O)C(C)=C(N)C3=O)N1C[C@@H]1N[C@@H]12` [Mitomycin C], the “Regrowth, OD600 at 6h or 8h after dilution into drug-free medium (average)” value in the experiment with non-growing UPEC CFT073 (setting [2]) was determined as 0.575; with non-growing UPEC CFT073 (setting [3]), 0.556; with non-growing UPEC CFT073 (setting [4]), 0.551; in the experiment with non-growing UPEC CFT073 (setting [5]) it was 0.482; in the experiment on non-growing UPEC CFT073 (setting [6]), 0.179; with non-growing UPEC CFT073 (setting [7]) it was 0.065. Further, the “Regrowth, OD600 at 6h or 8h after dilution into drug-free medium (average)” value in the experiment on non-growing UPEC CFT073 (setting [8]) was found to be 0.063; in the experiment with non-growing UPEC CFT073 (setting [9]), 0.474; in the experiment on non-growing UPEC CFT073 (setting [10]), 0.440; in the experiment on non-growing UPEC CFT073 (setting [11]), 0.294; with non-growing UPEC CFT073 (setting [12]), 0.140; in the experiment on non-growing UPEC CFT073 (setting [13]), 0.136. Further, the “Regrowth, OD600 at 6h or 8h after dilution into drug-free medium (average)” value with non-growing UPEC CFT073 (setting [14]) turned out to be 0.136; in the experiment on non-growing UPEC CFT073 (setting [15]), 0.134. The EC50 (in general, the midpoint of the concentration-response curve) in the experiment on non-growing UPEC CFT073 (Escherichia coli, pH 5.5) was found to be 0.706 µM; in the experiment with non-growing UPEC CFT073 (Escherichia coli, pH 5.5, read-out: EC50 (regrowth inhibition curve, Fig. S4)), 0.69 µM; with non-growing UPEC CFT073 (Escherichia coli, pH 7.4), 3.68 µM; in the experiment with non-growing UPEC CFT073 (Escherichia coli, pH 7.4, read-out: EC50 (regrowth inhibition curve, Fig. S4)), 3.77 µM. Moreover, the “activity against non-growing UPEC in LPM (pH 5.5) compared to 1:4 CA-MHB (pH 7.4)” value in the experiment on non-growing UPEC CFT073 is recorded as “potentiated by the low pH”. Besides, half-maximal inhibition in experiment [1] (IC50) was put at 0.451 µM. In experiment [1] (setting [16]), the “Fluorescence intensity (RFU), Mean, 2 x MIC” value is reported as 2991.58 RFU. Besides, the “Fluorescence intensity (RFU), Mean, 4 x MIC” value in experiment [1] (setting [16]) was 2579.31 RFU. Besides, the “Fluorescence intensity (RFU), Mean, 8 x MIC” value in experiment [1] (setting [16]) is reported as 2274.5 RFU. Further, the “Fluorescence intensity (RFU), Mean, 16 x MIC” value in experiment [1] (setting [16]) is 1986.92 RFU. Also, in experiment [1] (setting [16]), the “Fluorescence intensity (RFU), Mean, 32 x MIC” value was 1617.58 RFU. Besides, the “Fluorescence intensity (RFU), Mean, MIC” value in experiment [1] (setting [16]) is 3708.94 RFU. Also, the minimal inhibitory concentration (MIC) (commonly the smallest concentration in the dilution series that meets the test's criterion for growth inhibition) in the experiment with S. flexneri 5a M90T is 1 µM (≈ 0.334 µg/mL).
As for `CN1CCN(c2cc3c(cc2F)c(=O)c(C(=O)O)cn3-c2ccc(F)cc2)CC1` [Difloxacin], the EC50 in the experiment on non-growing UPEC CFT073 (Escherichia coli, E. coli, LPM pH 5.5, regrowth delay of non-growing bacteria, 24 h treatment, OD600 6 h after 2500-fold dilution, read-out: EC50) is 9.95 µM. The EC50 in the experiment with non-growing UPEC CFT073 (Escherichia coli, E. coli, pH 7.4, regrowth delay of non-growing bacteria, 1:4 CA-MHB, 24 h treatment, OD600 6 h after 2500-fold dilution, read-out: EC50) amounted to 6.46 µM. In addition, the IC50 – broadly, the midpoint of a concentration-inhibition curve – in experiment [1] came to 0.183 µM. For the same molecule, in experiment [1] (setting [16]), the “Fluorescence intensity (RFU), Mean, 0.25 x MIC” value was 8915.25 RFU; the “Fluorescence intensity (RFU), Mean, 0.5 x MIC” value is recorded as 8126.42 RFU; the “Fluorescence intensity (RFU), Mean, 2 x MIC” value is 3233.81 RFU; the “Fluorescence intensity (RFU), Mean, 4 x MIC” value worked out at 2824.97 RFU. For the same molecule, in experiment [1] (setting [16]), the “Fluorescence intensity (RFU), Mean, 8 x MIC” value is recorded as 2319.67 RFU; the “Fluorescence intensity (RFU), Mean, 16 x MIC” value was determined as 1827.36 RFU; the “Fluorescence intensity (RFU), Mean, 32 x MIC” value is given as 1634.92 RFU; the “Fluorescence intensity (RFU), Mean, MIC” value was determined as 3866.17 RFU. Also, in the experiment on S. flexneri 5a M90T, the MIC amounted to 0.25 µM (≈ 0.0998 µg/mL).
In the case of `CC(=O)[O][Pt]([NH2])([Cl])([Cl])([NH]C1CCCCC1)[O]C(C)=O` [Satraplatin], the “Regrowth, OD600 at 6h or 8h after dilution into drug-free medium (average)” value in the experiment with non-growing UPEC CFT073 (setting [2]) is on record as 0.615; with non-growing UPEC CFT073 (setting [3]) it was 0.612; in the experiment on non-growing UPEC CFT073 (setting [4]), 0.620; with non-growing UPEC CFT073 (setting [5]), 0.601; in the experiment with non-growing UPEC CFT073 (setting [6]), 0.592; with non-growing UPEC CFT073 (setting [7]), 0.597. The “Regrowth, OD600 at 6h or 8h after dilution into drug-free medium (average)” value was determined as 0.570 in the experiment on non-growing UPEC CFT073 (setting [8]); 0.566 in the experiment on non-growing UPEC CFT073 (setting [9]); 0.557 in the experiment with non-growing UPEC CFT073 (setting [10]); 0.558 with non-growing UPEC CFT073 (setting [11]); 0.474 in the experiment with non-growing UPEC CFT073 (setting [12]); 0.354 in the experiment with non-growing UPEC CFT073 (setting [13]). Besides, the “Regrowth, OD600 at 6h or 8h after dilution into drug-free medium (average)” value in the experiment with non-growing UPEC CFT073 (setting [14]) is reported as 0.251; with non-growing UPEC CFT073 (setting [15]), 0.087. Besides, in the experiment with non-growing UPEC CFT073 (E. coli, LPM pH 5.5, regrowth delay of non-growing bacteria, 24 h treatment, OD600 6 h after 2500-fold dilution, read-out: EC50), the EC50 stood at 7.62 µM. The “activity against non-growing UPEC in LPM (pH 5.5) compared to 1:4 CA-MHB (pH 7.4)” value with non-growing UPEC CFT073 is “potentiated by the low pH”. Further, in experiment [1] (TC7 cells infected with GFP-expressing S. flexneri, 14 h treatment, 0.0625 x MIC), the “Fluorescence intensity (RFU), Mean, 0.0625 x MIC” value stood at 9460.97 RFU. Moreover, the “Fluorescence intensity (RFU), Mean, 0.125 x MIC” value in experiment [1] (TC7 cells infected with GFP-expressing S. flexneri, 14 h treatment, 0.125 x MIC) was 9284.03 RFU. In addition, the “Fluorescence intensity (RFU), Mean, 0.25 x MIC” value in experiment [1] (setting [16]) came to 8685.25 RFU. The “Fluorescence intensity (RFU), Mean, 0.5 x MIC” value in experiment [1] (setting [16]) stood at 7328.94 RFU. The “Fluorescence intensity (RFU), Mean, 2 x MIC” value in experiment [1] (setting [16]) turned out to be 2689 RFU. Further, in experiment [1] (setting [16]), the “Fluorescence intensity (RFU), Mean, MIC” value is given as 4882 RFU. In addition, the “MIC (μM) TSB” value against S. flexneri 5a M90T (S. flexneri, extracellular bacteria in TSB) is 128 µM.
